This note sets out measurements from patent publication US10334859B2, “Method and pesticidal mixtures for controlling Pentatomidae pests” (BASF SE, priority 2014, dated 2019).

Read-outs that look alike come from different tables or passages of the source.

The test system of one assay is Alternaria solani. The assay is classed as cell-based.
The next assay has as its system Septoria tritici. Format: cell-based.
The subject of a further assay is Phytophthora infestans. Format: cell-based.
The next assay concerns Leptosphaeria nodorum. Format: cell-based.
For another assay, the system named is Pyricularia oryzae. The assay is classed as cell-based.
For assay [1], the system named is southern green stink bug (Nezara viridula). Kind of assay: Test 7: control of southern green stink bug on dipped Lima bean plants. Format: in vivo. To be noted: 50 ppm; mortality (sick + death insects) of second instar at 5 days. The protocol: Beauveria bassiana strain PPRI 5339 was at room temperature for one hour before use.
Seven days old Lima bean plants were dipped into each treatment. Once dried, plants were artificially infested with four second instar southern green stink bugs. Percentage of mortality (sick+ death insects) was evaluated at 5 days.

Assay [2] has the same test system. Kind of assay: Test 5: control of southern green stink bug, dipped green beans and bugs. To be noted: 10 ppm.
For another assay, the system named is Botrytis cinerea. The assay is classed as cell-based. To be noted: concentration 4.

For the compound `Fc1ccc([C@]2(Cn3cncn3)O[C@H]2c2ccccc2Cl)cc1` (racemic) [Epoxiconazol, epoxiconazole], the Observed efficacy in the assay with Alternaria solani (concentration 0.25) is on record as 36%; in the assay with Septoria tritici (concentration 0.25) it was 35%.

Consider `CCCCCCCCc1c(CC)nc2ncnn2c1N` [Ametoctradin, ametoctradin], for which the Observed efficacy in the assay on Phytophthora infestans (0.004 ppm) stood at 0%.

With `CC(C)(C)[C@]1(O)C[C@@H]2OC(=O)C[C@@]23C(=O)O[C@@H]2OC(=O)[C@H](O)[C@]213` [Bilobalide, (3aS,5aR,8aS,9R,10aR)-9-tert-butyl-8,9-dihydroxydihydro-9H-furo[2,3-b]furo[3′,2′;2,3]cyclopenta[1,2-c]furan-2,4,7(3H,8H)-trione], the Observed efficacy amounted to 24% in the assay with Leptosphaeria nodorum (concentration 63); 3% with Pyricularia oryzae (concentration 4); 1% in the assay with Pyricularia oryzae (concentration 16); 5% in the assay on Pyricularia oryzae (concentration 63); 0% with Alternaria solani (concentration 16); 0% with Alternaria solani (concentration 63). For the same compound, the Observed efficacy in the assay with Septoria tritici (concentration 1) is recorded as 6%; in the assay on Septoria tritici (concentration 4), 8%; with Septoria tritici (concentration 16) it was 9%; in the assay on Phytophthora infestans (0.063 ppm) it was 0%; in the assay with Phytophthora infestans (0.25 ppm), 4%; in the assay on Phytophthora infestans (1 ppm), 24%. Moreover, the Observed efficacy in assay [1] was found to be 33%.

As for `CC1COC(Cn2cncn2)(c2ccc(Oc3ccc(Cl)cc3)cc2Cl)O1` (stereo not shown) [Difenoconazol, difenoconazole], the figures for the Observed efficacy in the assay on Leptosphaeria nodorum (concentration 1) and with Alternaria solani (concentration 1) were 21% and 0%, respectively.

The compound `CC1(C(=O)Nc2ccc(O)c(Cl)c2Cl)CCCCC1` [Fenhexamid, fenhexamid] came in with an Observed efficacy with Alternaria solani (concentration 4) of 46%.

In the assay with Alternaria solani (concentration 0.25), `CO/N=C(/C1=NOCCO1)c1ccccc1Oc1ncnc(Oc2ccccc2Cl)c1F` [Fluoxastrobin, fluoxastrobin] registered an Observed efficacy of 11%.

Regarding `Cn1cc(C(=O)Nc2ccccc2-c2cc(F)c(F)c(F)c2)c(C(F)F)n1` [Fluxapyroxad, fluxapyroxad], the Observed efficacy in assay [2] amounted to 0%.

`C[C@@H]1C(=O)O[C@H]2C[C@@]34[C@H]5C[C@@H](C(C)(C)C)[C@]36[C@@H](OC(=O)[C@@H]6O)O[C@@]4(C(=O)O5)[C@]21O` [Ginkgolide A]: the Observed efficacy with Leptosphaeria nodorum (concentration 63) was 18%; in the assay on Alternaria solani (concentration 16) it was 0%; in the assay on Alternaria solani (concentration 63), 0%; in the assay on Septoria tritici (concentration 63), 16%.

Turning to `CO/C=C(/C(=O)OC)c1ccccc1COc1cccc(C(F)(F)F)n1` [Picoxystrobin, picoxystrobin], in the assay with Alternaria solani (concentration 0.25), the Observed efficacy turned out to be 39%.

As for `CCCN(CCOc1c(Cl)cc(Cl)cc1Cl)C(=O)n1ccnc1` [Prochloraz, prochloraz], the results for the Observed efficacy in the assay with Septoria tritici (concentration 4) and in the assay on Botrytis cinerea were 49% and 39%, respectively.

For `COC(=O)N(OC)c1ccccc1COc1ccn(-c2ccc(Cl)cc2)n1` [Pyraclostrobin, pyraclostrobin], the figures for the Observed efficacy (in assay [2]; in the assay on Septoria tritici (concentration 0.004)) were 0% and 59%, respectively.

For `CON=C(C(=O)OC)c1ccccc1CON=C(C)c1cccc(C(F)(F)F)c1` [Trifloxystrobin, trifloxystrobin], the Observed efficacy came to 7% in the assay on Septoria tritici (concentration 0.004) and 67% in the assay on Septoria tritici (concentration 0.016).

In the case of chlorothalonil, the Observed efficacy is 39% in the assay with Leptosphaeria nodorum (concentration 1) and 53% in the assay on Botrytis cinerea.
